Structures can show the parent of a compound that is named as a salt.

Data set [1] addresses T1, recombinant human 17β-HSD1 (Homo sapiens, UniProt P14061).
T1 construct: made in house; host or cells: Sd9 (Sf9) insect cells, baculovirus (Bac to Bac Expression System)
T1 sequence (P14061 1-328): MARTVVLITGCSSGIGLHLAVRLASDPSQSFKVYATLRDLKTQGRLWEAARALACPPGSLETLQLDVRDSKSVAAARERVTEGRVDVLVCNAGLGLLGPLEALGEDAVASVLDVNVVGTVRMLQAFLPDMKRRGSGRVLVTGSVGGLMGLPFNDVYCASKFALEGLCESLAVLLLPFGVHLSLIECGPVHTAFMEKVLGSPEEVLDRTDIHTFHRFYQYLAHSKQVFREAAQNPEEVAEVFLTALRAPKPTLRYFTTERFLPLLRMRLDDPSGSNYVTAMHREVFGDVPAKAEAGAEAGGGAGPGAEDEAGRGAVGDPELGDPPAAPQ
The experiment in a line: Inhibition of recombinant human 17β-HSD1. The class given is biochemical. To be noted: inhibitor at 1 μM; 30 nM estrone, 1 mM NADPH, 30 min at RT; read-out: 17β-HDS1 Inhibition % at 1 μM. The essentials: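 Microsomal enzyme from baculovirus-infected insect cells (1 μg/ml) incubated 30 min at RT in 20 mM KH2PO4 pH 7.4 with 30 nM ³H-estrone and 1 mM NADPH, inhibitor at 1 μM or 0.1 μM, 1% DMSO. TCA-stopped; estrone/estradiol separated by radio-HPLC; % inhibition = 100 − % conversion.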

The conditions of data set [2]: human, tissue homogenate, 1 h.
Experimental: The in vitro metabolic stability of the compounds of the invention was determined for exemplified compounds using human liver microsome and homogenate incubations. The incubation time points used with or without appropriate cofactors were 0 min and 60 min. Samples were collected at both time points and substrates were detected using LC/PDA/TOF-MS.
The target in data set [3] is T2, recombinant human 17β-HSD2 (Homo sapiens, UniProt P37059).
T2 construct: made in house; host or cells: Sd9 (Sf9) insect cells, baculovirus (Bac to Bac Expression System)
T2 sequence (P37059 1-387): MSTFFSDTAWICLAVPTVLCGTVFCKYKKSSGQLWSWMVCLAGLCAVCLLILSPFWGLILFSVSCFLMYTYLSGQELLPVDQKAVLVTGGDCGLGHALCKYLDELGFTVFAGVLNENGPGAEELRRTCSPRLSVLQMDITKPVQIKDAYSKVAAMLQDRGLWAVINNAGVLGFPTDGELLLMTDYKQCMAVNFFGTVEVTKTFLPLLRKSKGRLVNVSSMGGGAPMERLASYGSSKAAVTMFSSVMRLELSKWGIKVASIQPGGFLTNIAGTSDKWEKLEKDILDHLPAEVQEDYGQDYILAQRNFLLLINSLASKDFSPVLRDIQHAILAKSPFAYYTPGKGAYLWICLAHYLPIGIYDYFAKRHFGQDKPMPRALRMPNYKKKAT
The experiment in a line: Inhibition of recombinant human 17β-HSD2. The format is biochemical. The following applies: inhibitor at 1 μM; 50 nM estradiol, 1 mM NADH, 30 min at RT; read-out: 17β-HSD2 Inhibition % at 1 μM. The essentials: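 Membrane extract of baculovirus-expressed enzyme in Sf9 cells (4 μg/ml) incubated in 20 mM KH2PO4 pH 8.5 with 50 nM estradiol (³H-tracer) and 1 mM NADH, 30 min at RT, 1% DMSO, inhibitor at 1 μM or 0.1 μM. TCA-stopped; estradiol-to-estrone conversion by radio-HPLC; % inhibition = 100 − % conversion.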

As to `Cc1cnc(NC(=O)CC[C@@H]2CC(=O)[C@@]3(C)CCC4c5ccc(OS(C)(=O)=O)cc5CCC4C23)s1` (stereo partly drawn) [Compound 2, Methanesulphonic acid (13S,15R)-13-methyl-15-[2-(5-methylthiazol-2-ylcarbamoyl)-ethyl]-17-oxo-7,8,9,11,12,13,14,15,16,17-decahydro-6H-cyclopenta[a]phenanthren-3-yl ester], the inhibition (commonly how much of the control response was suppressed) at 1 µM in data set [1] stood at 95%; in data set [3] it was 11%. For the same molecule, the “In vitro metabolic stability, % remaining after 60 min” value in data set [2] is 25%.
As to `Cc1cnc(NC(=O)CC[C@@H]2CC(=O)[C@@]3(C)CCC4c5ccc(OC(=O)C(C)(C)C)cc5CCC4C23)s1` (stereo partly drawn) [Compound 3, 2,2-Dimethyl-propionic acid (13S,15R)-13-methyl-15-[2-(5-methylthiazol-2-ylcarbamoyl)-ethyl]-17-oxo-7,8,9,11,12,13,14,15,16,17-decahydro-6H-cyclopenta[a]phenanthren-3-yl ester], the “In vitro metabolic stability, % remaining after 60 min” value in data set [2] was determined as 30%.
As to `Cc1cnc(NC(=O)CC[C@@H]2CC(=O)[C@@]3(C)CCC4c5ccc(OS(=O)(=O)O)cc5CCC4C23)s1` (stereo partly drawn) [Compound 5, Sulphuric acid mono-{(13S,15R)-13-methyl-15-[2-(5-methylthiazol-2-ylcarbamoyl)-ethyl]-17-oxo-7,8,9,11,12,13,14,15,16,17-decahydro-6H-cyclopenta[a]phenanthren-3-yl} ester triethylamine salt], the inhibition at 1 µM in data set [1] came to 92%; in data set [3], 4%. Further, in data set [2], the “In vitro metabolic stability, % remaining after 60 min” value is given as 50%.
With `Cc1cnc(NC(=O)CC[C@@H]2CC(=O)[C@@]3(C)CCC4c5ccc(OCc6ccccc6)cc5CCC4C23)s1` (stereo partly drawn) [Compound 30, 3-((13S,15R)-3-Benzyloxy-13-methyl-17-oxo-7,8,9,11,12,13,14,15,16,17-decahydro-6H-cyclopenta[a]phenanthren-15-yl)-N-(5-methylthiazol-2-yl)propanamide], in data set [2], the “In vitro metabolic stability, % remaining after 60 min” value is recorded as 74%.
`Cc1cnc(NC(=O)CC[C@@H]2CC(=O)[C@@]3(C)CCC4c5cc6ncoc6cc5CCC4C23)s1` (stereo partly drawn) [Compound 47, 3-((3R,12aS)-12a-methyl-1-oxo-2,3,3a,3b,4,5,10b,11,12,12a-decahydro-1H-cyclopenta[7,8]phenanthro[3,2-d]oxazol-3-yl)-N-(5-methylthiazol-2-yl)propanamide]: the inhibition at 1 µM was 87% in data set [1] and 2% in data set [3]. Besides, the “In vitro metabolic stability, % remaining after 60 min” value in data set [2] was 48%.
Consider `Cc1cnc(NC(=O)CC[C@@H]2CC(=O)[C@@]3(C)CCC4c5cccc(N)c5CCC4C23)s1` (stereo partly drawn) [Compound 89, 3-((13S,15R)-4-amino-13-methyl-17-oxo-7,8,9,11,12,13,14,15,16,17-decahydro-6H-cyclopenta[a]phenanthren-15-yl)-N-(5-methylthiazol-2-yl)propanamide], for which the inhibition at 1 µM in data set [1] turned out to be 71%; in data set [3], 0%.
With `Cc1cnc(NC(=O)CC[C@@H]2CC(=O)[C@@]3(C)CCC4c5cccc(O)c5CCC4C23)s1` (stereo partly drawn) [Compound 90, 3-((13S,15R)-4-hydroxy-13-methyl-17-oxo-7,8,9,11,12,13,14,15,16,17-decahydro-6H-cyclopenta[a]phenanthren-15-yl)-N-(5-methylthiazol-2-yl)propanamide], the inhibition at 1 µM in data set [1] amounted to 94%; in data set [3], 0%.
Taken in the same sequence, the figures for `Cc1cnc(NC(=O)CC[C@@H]2CC(=O)[C@@]3(C)CCC4c5cc(C#N)c(O)cc5CCC4C23)s1` (stereo partly drawn) [Compound 91, 3-((13S,15R)-2-cyano-3-hydroxy-13-methyl-17-oxo-7,8,9,11,12,13,14,15,16,17-decahydro-6H-cyclopenta[a]phenanthren-15-yl)-N-(5-methylthiazol-2-yl)propanamide] were 97% and 1%.
With `Cc1cnc(NC(=O)CC[C@@H]2CC(=O)[C@@]3(C)CCC4c5ccc(O)c(C#N)c5CCC4C23)s1` (stereo partly drawn) [Compound 92, 3-((13S,15R)-4-cyano-3-hydroxy-13-methyl-17-oxo-7,8,9,11,12,13,14,15,16,17-decahydro-6H-cyclopenta[a]phenanthren-15-yl)-N-(5-methylthiazol-2-yl)propanamide], the inhibition at 1 µM in data set [1] came out at 97%; in data set [3], 0%.
`COc1ccc2c(c1)CCC1C2CC[C@]2(C)C(=O)C(O)[C@@H](CCC(=O)Nc3ncc(C)s3)C12` (stereo partly drawn) [Compound 93, 3-((13S,15S)-16-hydroxy-3-methoxy-13-methyl-17-oxo-7,8,9,11,12,13,14,15,16,17-decahydro-6H-cyclopenta[a]phenanthren-15-yl)-N-(5-methylthiazol-2-yl)propanamide]: the inhibition at 1 µM in data set [1] turned out to be 54%; in data set [3], 3%.
In the case of `Cc1cnc(NC(=O)CC[C@@H]2CC(=O)[C@@]3(C)CCC4c5c([N+](=O)[O-])ccc(O)c5CCC4C23)s1` (stereo partly drawn) [Compound 94, 3-((13S,15R)-4-hydroxy-13-methyl-1-nitro-17-oxo-7,8,9,11,12,13,14,15,16,17-decahydro-6H-cyclopenta[a]phenanthren-15-yl)-N-(5-methylthiazol-2-yl)propanamide], the inhibition at 1 µM in data set [1] was determined as 95%; in data set [3], 4%.
Take `Cc1cnc(NC(=O)CC[C@@H]2/C(=C/O)C(=O)[C@@]3(C)CCC4c5ccc(O)cc5CCC4C23)s1` (stereo partly drawn) [Compound 95, 3-{(13S,15S)-3-Hydroxy-16-[1-hydroxy-methylidene]-13-methyl-17-oxo-7,8,9,11,12,13,14,15,16,17-decahydro-6H-cyclopenta[a]phenanthren-15-yl}-N-(5-methylthiazol-2-yl)propanamide]: the inhibition at 1 µM turned out to be 97% in data set [1] and 3% in data set [3].
Regarding `COc1ccc2c(c1)CCC1C2CC[C@]2(C)C(=O)/C(=C/O)[C@@H](CCC(=O)Nc3ncc(C)s3)C12` (stereo partly drawn) [Compound 97, 3-{(13S,15S)-16-[1-Hydroxy-methylidene]-3-methoxy-13-methyl-17-oxo-7,8,9,11,12,13,14,15,16,17-decahydro-6H-cyclopenta[a]phenanthren-15-yl}-N-(5-methylthiazol-2-yl)propanamide], the inhibition at 1 µM in data set [1] was 92%; in data set [3], 11%.
Taken in the same sequence, the figures for `Cc1cnc(NC(=O)CC[C@@H]2CC(=O)[C@@]3(C)CCC4c5cccc(C(C)(C)C)c5CCC4C23)s1` (stereo partly drawn) [Compound 105, 3-((13S,15R)-4-(tert-butyl)-13-methyl-17-oxo-7,8,9,11,12,13,14,15,16,17-decahydro-6H-cyclopenta[a]phenanthren-15-yl)-N-(5-methylthiazol-2-yl)propanamide] were 90% and 16%.
For `COc1ccc2c(c1)CCC1C2CC[C@]2(C)C(=O)C[C@@H](CCC(=O)Nc3ncc(C)s3)C12` (stereo partly drawn) [Compound X, 3-((13S,15R)-3-Methoxy-13-methyl-17-oxo-7,8,9,11,12,13,14,15,16,17-decahydro-6H-cyclopenta[a]phenanthren-15-yl)-N-(5-methylthiazol-2-yl)propanamide, reference compound], the inhibition at 1 µM in data set [1] amounted to 96%; in data set [3] it was 3%.

For the origin of these results see patent US10377791B2, “Therapeutically active estratrienthiazole derivatives as inhibitors of 17 B-hydroxysteroid dehydrogenase, type 1” (FORENDO PHARMA LTD, priority 2013, dated 2019).
